According to US9730447B2, “Fungicidal amides” (E I DU PONT DE NEMOURS AND COMPANY, priority 2013, dated 2017):

How the values were obtained:
Botrytis cinerea = assay: Test A: preventive spray on tomato seedlings, Botrytis cinerea (gray mold), visual disease rating; type: in vivo; conditions: 100 = 100% disease control, 0 = no control relative to controls, unmarked values; for pest or weed control at 40 µg/mL, 160 g/ha: 96 h
How it was run: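 Tomato seedlings sprayed to run-off with 40 ppm or 10 ppm suspensions (160 or 40 g ai/ha) in acetone/water with 250 ppm surfactant. Inoculated with B. cinerea spores next day, held saturated at 20 °C for 48 h, then 27 °C for 2 days. Visual rating, 0–100% disease control relative to controls.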

[1] = test system: Stagonospora nodorum (also known as Septoria nodorum); assay: Test B: preventive spray on wheat seedlings, Stagonospora nodorum (wheat glume blotch), visual disease rating; type: in vivo; conditions: 100 = 100% disease control, 0 = no control, unmarked values
How it was run: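 Compounds in acetone/water (50/50) with 250 ppm Trem 014 surfactant were sprayed to run-off at 40 ppm (160 g ai/ha) or 10 ppm (40 g ai/ha). Seedlings were inoculated with S. nodorum spores the next day, then held 48 h saturated at 20 °C and 6 days in a growth chamber at 20 °C. Visual rating as % disease control vs untreated.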

Septoria tritici = assay: Test C: preventive spray on wheat seedlings, Septoria tritici (wheat leaf blotch), visual disease rating; type: in vivo; conditions: 100 = 100% disease control, 0 = no control, unmarked values
How it was run: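 Wheat seedlings sprayed to run-off at 40 ppm or 10 ppm (160 or 40 g ai/ha) in acetone/water with surfactant, inoculated with Septoria tritici spores next day. Held 48 h saturated at 24 °C, then 21 days at 20 °C. Visual rating scored as % disease control relative to controls.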

[2] = test system: Puccinia recondite f. sp. tritici; assay: Test D: preventive spray on wheat seedlings, Puccinia recondite f. sp. tritici (wheat leaf rust), visual disease rating; type: in vivo; conditions: 100 = 100% disease control, 0 = no control, unmarked values
How it was run: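 Wheat seedlings sprayed to run-off with 40 ppm (160 g ai/ha) or 10 ppm (40 g ai/ha) suspension in acetone/water with 250 ppm surfactant, inoculated next day with leaf rust spores. After 24 h saturated at 20 °C then 6 days at 20 °C, visual rating of disease control (0–100) relative to controls.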

[3] = test system: Erysiphe graminis f. sp. tritici; assay: Test E: preventive spray on wheat seedlings, Erysiphe graminis f. sp. tritici (wheat powdery mildew), visual disease rating; type: in vivo; conditions: 100 = 100% disease control, 0 = no control, unmarked values
How it was run: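 Wheat seedlings were sprayed to run-off with 40 or 10 ppm suspension (160 or 40 g ai/ha) and dusted with spores the next day. They were then kept 8 days at 20 °C. Disease was rated visually as % control relative to untreated controls (0–100).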

Molecule: O=C(Nc1ccccc1-c1cnc(-n2ccc(C(F)(F)F)n2)cn1)c1ccccc1C(F)(F)F [Compound 1, 2-(trifluoromethyl)-N-[2-[5-[3-(trifluoromethyl)-1H-pyrazol-1-yl]-2-pyrazinyl]phenyl]benzamide]
- melting point: 180 to 182 °C
- pest or weed control at 40 µg/mL, 160 g/ha (Botrytis cinerea): 27%

Molecule: Cn1cc(C(=O)Nc2ccccc2-c2cnc(-n3ccc(C(F)(F)F)n3)cn2)c(C(F)F)n1 [Compound 2, 3-(difluoromethyl)-1-methyl-N-[2-[5-[3-(trifluoromethyl)-1H-pyrazol-1-yl]-2-pyrazinyl]phenyl]-1H-pyrazole-4-carboxamide]
- melting point: 207 to 209 °C
- pest or weed control at 40 µg/mL, 160 g/ha (Botrytis cinerea): 15%

Molecule: Cn1cc(C(=O)Nc2ccccc2-c2ccc(-n3ccc(C(F)(F)F)n3)nc2)c(C(F)F)n1 [Compound 51, 3-(difluoromethyl)-N-[2-[6-[3-(trifluoromethyl)-1H-pyrazol-1-yl]-3-pyridinyl]phenyl]-1-methyl-1H-pyrazole-4-carboxamide]
- melting point: 157 to 159 °C
- pest or weed control at 40 µg/mL, 160 g/ha (Botrytis cinerea): 97%

Molecule: Cn1cc(C(=O)Nc2ccccc2-c2ccc(-n3ccc(C(F)(F)F)n3)nn2)c(C(F)F)n1 [Compound 54, 3-(difluoromethyl)-1-methyl-N-[2-[6-[3-(trifluoromethyl)-1H-pyrazol-1-yl]-3-pyridazinyl]phenyl]-1H-pyrazole-4-carboxamide]
- melting point: 248 to 250 °C
- pest or weed control at 40 µg/mL, 160 g/ha (Botrytis cinerea): 0%

Molecule: O=C(Nc1ccccc1-c1cnc(-n2ccc(C(F)(F)F)n2)nc1)c1ncccc1C(F)(F)F [Compound 56, 3-(trifluoromethyl)-N-[2-[2-[3-(trifluoromethyl)-1H-pyrazol-1-yl]-5-pyrimidinyl]phenyl]-2-pyridinecarboxamide]
- melting point: 178 to 180 °C
- pest or weed control at 40 µg/mL, 160 g/ha (Botrytis cinerea): 16%

Molecule: Cn1cc(C(=O)Nc2ccccc2-c2cnc(-n3ccc(C(F)(F)F)n3)nc2)c(C(F)F)n1 [Compound 58, 3-(difluoromethyl)-1-methyl-N-[2-[2-[3-(trifluoromethyl)-1H-pyrazol-1-yl]-5-pyrimidinyl]phenyl]-1H-pyrazole-4-carboxamide]
- melting point: 167 to 169 °C
- pest or weed control at 40 µg/mL, 160 g/ha (Botrytis cinerea): 0%

Molecule: N-[2-[5-fluoro-6-[3-(trifluoromethyl)-1H-pyrazol-1-yl]-3-pyridinyl]phenyl]-3-(trifluoromethyl)-2-pyridinecarboxamide [Compound 50]
- Test B disease control rating [1]: 100%
- Test A disease control rating (Botrytis cinerea): 99%
- Test C disease control rating (Septoria tritici): 100%
- Test D disease control rating [2]: 100%
- Test E disease control rating [3]: 100%
